Each structure is given as a SMILES string.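 Following 48 hours of exposure in 96-well plates, responses at five concentrations were used to interpolate endpoints linearly. GI50: concentration for 50% inhibition of growth. TGI is the concentration that stops growth completely.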

Test systems include NCI-H522 lung; MOLT-4 leukemia; NCI-H460 lung; HOP-92 NSCLC; OVCAR-8 ovarian; TK-10 renal; OVCAR-5 ovarian; SN12C renal; SK-MEL-2 melanoma; MCF7 breast.
Common to all, as to test: NCI anticancer screen, dose series, 48 h

In the case of `C(=Nc1ccc2c(c1)Cc1ccccc1-2)c1ccccn1`, the TGI in the test with NCI-H522 lung, in the test on MOLT-4 leukemia, in the test on NCI-H460 lung, with HOP-92 NSCLC, in the test on OVCAR-8 ovarian and in the test with TK-10 renal was above 100 µM throughout. The values for the TGI in the test on OVCAR-5 ovarian, with SN12C renal and in the test with SK-MEL-2 melanoma were above 100 µM, 90.3 µM and above 100 µM, respectively.
Turning to `Cc1ccc(CSC(N)=Nc2ccccc2)cc1C`, the TGI was 35.4 µM with NCI-H522 lung; 75.4 µM in the test with MOLT-4 leukemia; 39 µM with NCI-H460 lung; 45.7 µM with HOP-92 NSCLC; 45.9 µM in the test on OVCAR-8 ovarian; 86.7 µM with TK-10 renal. The TGI turned out to be 56.4 µM in the test with OVCAR-5 ovarian, 38.5 µM in the test on SN12C renal, 33.6 µM with SK-MEL-2 melanoma and 37.9 µM in the test with MCF7 breast.
In the case of `COc1ccc(C2COc3c(ccc(O)c3C)C2)cc1OC` (centres undefined), the TGI in the test with NCI-H522 lung is 142 µM; with MOLT-4 leukemia it was above 183 µM; in the test on NCI-H460 lung, above 193 µM; in the test with HOP-92 NSCLC, above 186 µM; in the test with OVCAR-8 ovarian, above 200 µM; with OVCAR-5 ovarian, above 162 µM. The TGI in the test on SN12C renal was above 200 µM; in the test with SK-MEL-2 melanoma it was 154 µM; with MCF7 breast, above 200 µM.
Consider `Cc1nc2ccc(S(=O)(=O)Nc3nccs3)cc2c(=O)n1NS(=O)(=O)c1nccs1`, for which the TGI in the test with NCI-H522 lung, with MOLT-4 leukemia, in the test with NCI-H460 lung, in the test with HOP-92 NSCLC, in the test on OVCAR-8 ovarian and with TK-10 renal was above 100 µM each time. The TGI in the test on OVCAR-5 ovarian, in the test on SN12C renal, in the test with SK-MEL-2 melanoma and in the test with MCF7 breast was above 100 µM each time.
For `N[C@H](Cc1ccc2oc3cc(=O)c4ccccc4c-3nc2c1)C(=O)O`, the TGI with NCI-H522 lung, in the test with MOLT-4 leukemia, with NCI-H460 lung, in the test with HOP-92 NSCLC, in the test on OVCAR-8 ovarian and in the test on TK-10 renal was above 100 µM each time. Besides, the TGI is above 100 µM with OVCAR-5 ovarian, above 100 µM in the test with SN12C renal and 65 µM in the test on MCF7 breast.
Consider `CCCCC1C=Cn2c(=O)oc3c(OC(C)C)c(C)c(O)c1c32` (centres undefined), for which the TGI worked out at 5.87 µM in the test with NCI-H522 lung; 3.33 µM in the test with MOLT-4 leukemia; 8.39 µM with NCI-H460 lung; 12.2 µM with HOP-92 NSCLC; 11.4 µM in the test on OVCAR-8 ovarian; 18.7 µM in the test on TK-10 renal. The TGI came out at 15.1 µM in the test on OVCAR-5 ovarian, 3.71 µM with SN12C renal, 5.07 µM with SK-MEL-2 melanoma and 1.81 µM in the test on MCF7 breast.
Consider `COC(=O)C1=C(OC)[C@H]2C#C/C=C\C#C[C@@H]3Nc4c(cc(O)c5c4C(=O)c4ccccc4C5=O)[C@]24O[C@@]34[C@H]1C`, for which the TGI was 0.0177 µM in the test on NCI-H522 lung; below 0.01 µM with MOLT-4 leukemia; above 100 µM in the test on NCI-H460 lung; below 0.01 µM in the test on HOP-92 NSCLC; below 0.01 µM in the test on OVCAR-8 ovarian; 0.176 µM with TK-10 renal. Besides, the TGI in the test on OVCAR-5 ovarian is 0.0311 µM; in the test with SN12C renal it was below 0.01 µM; in the test on SK-MEL-2 melanoma it was 0.206 µM; with MCF7 breast it was 0.126 µM.
With `COc1ccc2c(c1)c(-c1nc(-c3c[nH]c4ncccc34)cs1)cn2CCCCN1CCCCC1`, the GI50 with NCI-H460 lung was 1.81 µM; in the test on HOP-92 NSCLC, 1.18 µM; in the test with TK-10 renal, 1.51 µM; in the test with SK-MEL-2 melanoma, 1.8 µM. For the same compound, the TGI in the test with NCI-H460 lung worked out at 3.5 µM; in the test on HOP-92 NSCLC it was 2.48 µM; in the test on TK-10 renal, 2.93 µM; in the test with SK-MEL-2 melanoma, 3.54 µM.
`C[n+]1c2ccccc2c(NC(CCCN=C(N)N)C(=O)O)c2ccccc21` (centres undefined): the TGI in the test on NCI-H522 lung, in the test on MOLT-4 leukemia, in the test with NCI-H460 lung, in the test with HOP-92 NSCLC, with OVCAR-8 ovarian and in the test on TK-10 renal was above 100 µM in each case. The TGI in the test on OVCAR-5 ovarian, in the test with SN12C renal and with SK-MEL-2 melanoma was above 100 µM throughout.
As to `CN(C)CCCNc1ccc2ncn3c4ccc(O)cc4c(=O)c1c23`, the TGI in the test on NCI-H522 lung is 3.16 µM; in the test with MOLT-4 leukemia, 10.1 µM; in the test with NCI-H460 lung it was 4.56 µM; with HOP-92 NSCLC, 15.3 µM; with OVCAR-8 ovarian, 11.7 µM; in the test with TK-10 renal it was 19.8 µM. The TGI worked out at 15.7 µM in the test with OVCAR-5 ovarian, 16.2 µM in the test on SN12C renal, 19.6 µM with SK-MEL-2 melanoma and 1.27 µM with MCF7 breast.
Turning to `COc1ccc(/C=N/n2cnc3c(c2=O)SC(=C(C#N)C#N)N3c2ccccc2)cc1`, the TGI in the test on NCI-H522 lung, with MOLT-4 leukemia, in the test on NCI-H460 lung, in the test on HOP-92 NSCLC, in the test on OVCAR-8 ovarian and in the test with TK-10 renal was above 100 µM throughout. Besides, the TGI with OVCAR-5 ovarian is above 100 µM.
With `C/C(=N\NC(=S)N1CCCC1)c1nc2ncccc2[nH]1`, the TGI worked out at 30.2 µM in the test with NCI-H522 lung; 3.7 µM in the test on MOLT-4 leukemia; 1.68 µM with NCI-H460 lung; 8.5 µM with HOP-92 NSCLC; 39.9 µM in the test on OVCAR-8 ovarian; 45 µM in the test on TK-10 renal. Besides, the TGI with OVCAR-5 ovarian is 20.7 µM; in the test with SN12C renal it was above 100 µM; with SK-MEL-2 melanoma, 46.8 µM; with MCF7 breast, 13.4 µM.
Take `CCOC(=O)c1sc2nc(SC)nc(Nc3ccc4c(c3)OCCO4)c2c1N`: the TGI with NCI-H522 lung was 23.8 µM; with MOLT-4 leukemia, above 100 µM; with NCI-H460 lung it was above 100 µM; in the test on HOP-92 NSCLC, 27.4 µM; in the test with OVCAR-8 ovarian, 23.1 µM; with TK-10 renal it was 30.3 µM. Further, the TGI was determined as 54.7 µM with OVCAR-5 ovarian, 29.9 µM with SN12C renal, 33.7 µM with SK-MEL-2 melanoma and 23.6 µM in the test on MCF7 breast.
As to `O=C1c2ccccc2OCC12OC21C=CC(Cl)=CC1` (centres undefined), the TGI is 23.5 µM with MOLT-4 leukemia; 47.9 µM in the test with NCI-H460 lung; above 100 µM with HOP-92 NSCLC; above 100 µM with TK-10 renal; 81.3 µM in the test on OVCAR-5 ovarian; 35.3 µM in the test on SN12C renal. Besides, the TGI in the test with SK-MEL-2 melanoma is 59.1 µM; with MCF7 breast, above 100 µM.
As for `CCCO[C@@H]1[C@@H](OC(C)=O)[C@@H](OC(C)=O)C(C)(C)/C=C/[C@H](C)C(=O)[C@@]2(OC(C)=O)C[C@@](C)(OC(C)=O)[C@H](OC(C)=O)[C@@H]2[C@H]2OC(=O)CC[C@@]12OC(=O)c1ccccc1`, the TGI with NCI-H522 lung, in the test with MOLT-4 leukemia, with NCI-H460 lung, with HOP-92 NSCLC, in the test on OVCAR-8 ovarian and in the test with TK-10 renal was above 25 µM each time. Besides, the TGI with OVCAR-5 ovarian, with SN12C renal, with SK-MEL-2 melanoma and with MCF7 breast was above 25 µM in each case.
As to `CCCC(=O)[O-].CCCC(=O)[O-].NCCN.NCCN.[Co+3].[O-][Cl+3]([O-])([O-])[O-]`, the TGI in the test with NCI-H522 lung, with MOLT-4 leukemia, with NCI-H460 lung, in the test on HOP-92 NSCLC, in the test on OVCAR-8 ovarian and in the test on TK-10 renal was above 100 µM each time. The TGI in the test on OVCAR-5 ovarian, in the test on SN12C renal and in the test on SK-MEL-2 melanoma was above 100 µM each time.
On to `CN(C)CCNC(=O)c1cccc2[nH]c(-c3ccccn3)nc12`, for which the TGI was above 63.8 µM in the test on NCI-H522 lung; 70.6 µM in the test on MOLT-4 leukemia; above 58.4 µM in the test on NCI-H460 lung; 80.8 µM in the test with HOP-92 NSCLC; above 100 µM in the test with OVCAR-8 ovarian; above 100 µM with OVCAR-5 ovarian. Besides, the TGI in the test with SN12C renal, with SK-MEL-2 melanoma and with MCF7 breast was above 100 µM each time.
Regarding `CCCn1cnc2c(SCc3ccc(Cl)cc3)nc(N)nc21`, the TGI was 36.9 µM with NCI-H522 lung; 40.6 µM in the test with NCI-H460 lung; above 100 µM in the test with HOP-92 NSCLC; above 100 µM in the test with OVCAR-8 ovarian; 55.1 µM in the test with TK-10 renal; above 100 µM in the test with OVCAR-5 ovarian. The TGI is 83.3 µM in the test on SN12C renal, 41.3 µM in the test on SK-MEL-2 melanoma and above 100 µM in the test on MCF7 breast.
Consider `C=CCCC1(C)CCCNC1=S` (centres undefined), for which the TGI in the test with MOLT-4 leukemia, with NCI-H460 lung, in the test with HOP-92 NSCLC, with OVCAR-8 ovarian, with TK-10 renal and in the test on OVCAR-5 ovarian was above 100 µM throughout. Moreover, the TGI in the test with SN12C renal and in the test on SK-MEL-2 melanoma was above 100 µM in each case.
For the compound `O=C(N[C@@H](Cc1coc2ccccc12)B(O)O)[C@@H]1C[C@H]2CC[C@@H]1O2`, the GI50 with NCI-H522 lung is 5.04 µM; in the test on MOLT-4 leukemia, 2.96 µM; in the test with NCI-H460 lung, 30.7 µM; with HOP-92 NSCLC it was 5.06 µM; in the test with OVCAR-8 ovarian it was 80.8 µM; in the test with TK-10 renal, 2.44 µM. In addition, the GI50 is 6.8 µM in the test with OVCAR-5 ovarian, 9.24 µM with SN12C renal, 6.08 µM with SK-MEL-2 melanoma and 3.25 µM in the test with MCF7 breast. Further, the TGI in the test with NCI-H522 lung is 81.6 µM; in the test with MOLT-4 leukemia it was 48 µM; in the test with NCI-H460 lung it was above 100 µM; in the test with HOP-92 NSCLC, 80.8 µM; in the test on OVCAR-8 ovarian, above 100 µM; with TK-10 renal, 11.5 µM. Besides, the TGI in the test on OVCAR-5 ovarian, in the test with SN12C renal, in the test with SK-MEL-2 melanoma and in the test on MCF7 breast was above 100 µM each time.
